Test results reported in article PMC12321279, “Novel 4,5‐Dihydrothiazole‐Phenylpiperazine Derivatives: Synthesis, Docking Studies and Pharmacological Evaluation as Serotonergic Agents” (Chemmedchem, 2025).
Values joined by “and” are separate entries in the source; they are usually repeats but may differ in a detail not shown here. Equal values may be shown once.

What was measured:
5‐HT1A receptor [1] = target: T1, 5‐HT1A receptor (Rattus norvegicus, UniProt P19327); assay: 5‐HT1A competition binding assay ([3H]8‐OH‐DPAT, hippocampal membranes); details: 1 nM [3H]8‐OH‐DPAT, 95% CI in brackets, read-out: 5‐HT1A Ki (95% CI)
T1 construct: 80 μg of hippocampal membrane suspension (the 5‐HT1A assay); from tissue; host or cells: rat (Sprague-Dawley) hippocampus membranes
T1 sequence (P19327 1-422): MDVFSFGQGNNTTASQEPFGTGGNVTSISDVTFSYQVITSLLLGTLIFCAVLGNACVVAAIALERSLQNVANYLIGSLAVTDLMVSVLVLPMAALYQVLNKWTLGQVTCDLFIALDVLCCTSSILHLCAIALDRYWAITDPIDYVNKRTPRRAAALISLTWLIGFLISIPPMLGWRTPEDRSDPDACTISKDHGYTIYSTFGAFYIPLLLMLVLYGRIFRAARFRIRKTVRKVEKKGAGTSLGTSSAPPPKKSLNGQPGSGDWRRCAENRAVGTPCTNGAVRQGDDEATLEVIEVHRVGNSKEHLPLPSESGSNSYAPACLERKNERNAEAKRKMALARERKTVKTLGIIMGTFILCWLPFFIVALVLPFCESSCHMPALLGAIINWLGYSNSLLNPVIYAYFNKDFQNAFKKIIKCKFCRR
Experimental: (§1) Sprague‐Dawley rats were sacrificed by isoflurane overdose. Brains were rapidly removed and placed on ice. Hippocampi (for the 5‐HT1A assay) and frontal cortices (for the 5‐HT2A and 5‐HT2C assays) were dissected on a Petri dish. The tissue from 10 rats was homogenized in 30 vol. homogenization buffer (50 mM Tris–HCl, […], 1 mM EDTA, 1 mM dithiothreitol) with a handheld Teflon‐glass homogenizer. The homogenate was centrifuged at 48,000 × g at 4 °C for 15 min. The pellet was suspended and homogenized in the homogenization buffer and incubated for 10 min. at 36 °C. The centrifugation and suspension steps were repeated twice. The final pellet was homogenized in 5 vol. 50 mM Tris–HCl, pH = 7.4 buffer and stored at −80 °C for no longer than 6 months. […] For the 5‐HT2C assay, compounds were incubated in duplicate with 5 nM [^3H]mesulergine (specific activity: 80.2 Ci mmol^−1, Revvity, MA, USA) for 60 min. at 36 °C in a 50 mM Tris‐HCl (pH 7.4) buffer, supplemented with 5 mM MgCl2, 140 mM NaCl, 1 mM DTT, 1 mM CaCl2, 10 μM pargyline and 160μg of the frontal cortex membrane suspension. Non‐specific binding was determined with 10μM serotonin. The final DMSO concentration in the assay was 5%. After incubation, the reaction mixture was deposited onto Unifilter GF/C plates (Revvity, MA, USA) presoaked in 0.4% PEI (or 0.4% PEI and 0.5% Triton X‐100 for the 5‐HT2C assay) for 1 h with the FilterMate‐96 Harvester (Revvity, MA, USA). Then, each well was washed with 2 mL of 50 mM Tris–HCl (pH 7.4) buffer to separate bound ligands from free and the plates were left to dry overnight. Then, 35μl of Microscint‐20 scintillation fluid (Revvity, MA, USA) was added to each filter well and left to equilibrate for 2h. Filter‐bound radioactivity was counted in a MicroBeta2 LumiJet scintillation counter (Revvity, MA, USA). Binding curves were fitted with one site non‐linear regression. Binding affinity (pKi and Ki) for each compound was calculated from the […] values with the Cheng‐Prusoff equation from two separate experiments.

5‐HT2C receptor = target: T2, 5‐HT2C receptor (Rattus norvegicus, UniProt P08909); assay: 5‐HT2C competition binding assay ([3H]mesulergine, frontal cortex membranes); details: 5 nM [3H]mesulergine, 95% CI in brackets, read-out: 5‐HT2C Ki (95% CI)
T2 construct: 10 μM pargyline and 160μg of the frontal cortex membrane suspension; from tissue; host or cells: rat (Sprague-Dawley) frontal cortex membranes
T2 sequence (P08909 33-460): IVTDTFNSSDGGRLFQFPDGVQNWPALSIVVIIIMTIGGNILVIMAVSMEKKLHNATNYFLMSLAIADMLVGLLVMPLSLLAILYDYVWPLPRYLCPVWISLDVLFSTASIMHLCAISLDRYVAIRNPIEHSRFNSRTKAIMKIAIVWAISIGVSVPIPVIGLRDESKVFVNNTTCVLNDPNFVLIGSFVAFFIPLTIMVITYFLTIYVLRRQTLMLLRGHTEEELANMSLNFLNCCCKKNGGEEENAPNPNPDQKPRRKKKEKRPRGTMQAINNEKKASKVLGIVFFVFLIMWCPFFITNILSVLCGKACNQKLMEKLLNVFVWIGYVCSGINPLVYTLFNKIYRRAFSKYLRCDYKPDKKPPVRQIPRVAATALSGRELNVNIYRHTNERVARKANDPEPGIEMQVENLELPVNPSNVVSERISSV
Experimental: as §1

5‐HT1A receptor [2] = target: T1, 5‐HT1A receptor; assay: 5‐HT1A receptor activation in the [35S]GTP‐γ‐S assay (hippocampal membranes); assay type: biochemical; details: [35S]GTPγS, rat hippocampal membranes; for EC50: 95% CI in brackets, read-out: EC50 (95% CI, μM), 5‐HT1A receptor G‐protein stimulation
Experimental: Seven compound concentrations equally spaced on a log scale (10–4 M to 10–10 M) were incubated in duplicate with hippocampal membrane preparations (5μg per well) in assay buffer (50 mM Tris‐HCl, pH = 7.4, 1 mM EGTA, 3 mM MgCl2, 100 mM NaCl, and 30 μM GDP) and 0.08 nM [^35S]GTP‐γ‐S (specific activity: 1250 Ci mmole^−1, Revvity). Nonspecific binding was determined with 10μM of unlabeled GTP‐γ‐S. The final DMSO concentration in the assay was 5%. The reaction mixture was incubated for 90 min. at 30 °C on an orbital shaker set at 250 rpm. Next, the reaction mixture was deposited under vacuum with the FilterMate Harvester (Revvity, USA) onto Unifilter GF/C Plates (Revvity, MA, USA) presoaked with wash buffer (50 mM Tris‐HCl, pH = 7.4). The wells were then rapidly washed with 2 mL of wash buffer. Filter plates were dried overnight at room temperature. Once completely dry, 35 μl of MicroScint PS (Revvity, MA, USA) scintillation fluid was added to each well. Radioactivity was counted in a MicroBeta2 LumiJet scintillation counter (Revvity, MA, USA). Data were analyzed with GraphPad Prism 5.0 software (GraphPad Software, San Diego California USA, www.graphpad.com). The curves were fitted with three‐parameter non‐linear regression model.

5‐HT2A receptor [3] = target: T3, 5‐HT2A receptor (Rattus norvegicus, UniProt P14842); assay: 5‐HT2A competition binding assay ([3H]ketanserin, frontal cortex membranes); design: from tissue; host or cells: rat (Sprague-Dawley) frontal cortex membranes; details: 1 nM [3H]ketanserin, 95% CI in brackets, read-out: 5‐HT2A Ki (95% CI)
T3 sequence (P14842 whole entry): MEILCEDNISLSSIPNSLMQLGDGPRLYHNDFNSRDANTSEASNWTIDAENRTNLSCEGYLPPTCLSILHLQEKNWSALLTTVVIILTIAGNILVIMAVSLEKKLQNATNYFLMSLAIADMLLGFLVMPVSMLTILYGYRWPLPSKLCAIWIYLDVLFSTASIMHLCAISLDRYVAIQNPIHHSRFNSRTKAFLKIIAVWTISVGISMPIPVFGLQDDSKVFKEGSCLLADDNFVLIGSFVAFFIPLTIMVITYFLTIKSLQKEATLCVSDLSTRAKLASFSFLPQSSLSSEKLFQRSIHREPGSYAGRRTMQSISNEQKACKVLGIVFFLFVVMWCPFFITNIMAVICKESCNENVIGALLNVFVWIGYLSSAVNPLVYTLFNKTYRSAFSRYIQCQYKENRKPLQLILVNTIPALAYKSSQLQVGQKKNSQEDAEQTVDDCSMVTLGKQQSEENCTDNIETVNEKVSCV

5‐HT2A receptor [4] = target: T3, 5‐HT2A receptor; assay: Inhibition of 5‐HT‐evoked contractions in isolated rat ileum; design: segments (1–1.5 cm) of ileum were removed, flushed of luminal contents, and placed in Krebs solution; from tissue; host or cells: isolated rat (Sprague-Dawley) ileum segments; details: 5‐HT 10^−5 M, compounds 10^−8–10^−5 M; for IC50: IC50, inhibition of 5‐HT‐induced contractions in the rat ileum, contact time 10 min; for Emax: read-out: EMAX, maximal inhibitory effect on 5‐HT‐induced contractions in the rat ileum
Experimental: Male rats (Sprague‐Dawley, 160–200 g; Charles River Laboratories; Calco, Italy) were manipulated and cared for in strict compliance with the principles of laboratory animal care. Experimental procedures were conducted in conformity with Italian (D.L. 26/2014) and European (directive 2010/63/EU) regulations on the protection of animals used for scientific purposes and approved by the Italian Ministry. Animal housing complied with recent pharmacological guidance.^[ [40] ^] All animals weighing 160–200 g were used after a 1‐week acclimation period (temperature 23 ± 2 °C; humidity 60%, free access to water and standard food).
The segments were prepared as previously described:^[ [41] ^] the segments were set up in such a way as to record contractions mainly from the longitudinal axis, in an organ bath containing 20 mL of Krebs solution, bubbled with 95% O2 and 5% CO2 and maintained at 37 °C. The tissues were connected to an isotonic transducer (load: 0.5 g), connected to Power Lab system (Ugo Basile, Comerio, Italy). Ileal segments were equilibrated for 60 min^[ [16] ^] followed by three repeated additions of submaximal concentration of 5‐HT (10^−5 M) in order to record stable control contractions. […] The contact time for each concentration was 10 min. The compounds were dissolved in DMSO. […] Results are expressed as mean (SEM). […] The IC50 and Emax values were calculated with the aid of a computer program (GraphPad Prism 5).

SMILES	Ki (5‐HT1A receptor [1])	Ki (5‐HT2C receptor) [nM]	EC50 (5‐HT1A receptor [2]) [µM]	Emax (5‐HT1A receptor [2]; read-out: Emax (%) ± SEM, 5‐HT1A receptor G‐protein stimulation) [%]	Ki (5‐HT2A receptor [3]) [nM]	EMAX, maximal inhibitory effect on 5‐HT‐induced contractions in the rat ileum (5‐HT2A receptor [4]) [%]	IC50 (5‐HT2A receptor [4]) [nM]	Emax (%) ± SEM, 5‐HT1A receptor G‐protein stimulation (5‐HT1A receptor [2]) [%]	Emax (5‐HT2A receptor [4]) [%]
O=C(NCCCN1CCN(c2cccc(C3=NCCS3)c2)CC1)C1CC2C=CC1C2 (stereo not drawn) [FG‐14, Exo‐N‐(3‐(4‐(3‐(4,5‐dihydrothiazol‐2‐yl)phenyl)piperazin‐1‐yl)propyl) bicyclo [2.2.1] hept‐5‐ene‐2‐carboxamide]	340 nM	72	23.3	133 ± 5.7	430	22.48	2590		
O=C(NCCCN1CCN(c2ccccc2C2=NCCS2)CC1)C1CC2C=CC1C2 (stereo not drawn) [FG‐16, Endo‐N‐(3‐(4‐(2‐(4,5‐dihydrothiazol‐2‐yl)phenyl)piperazin‐1‐yl)propyl) bicyclo[2.2.1] hept‐5‐ene‐2‐carboxamide]	25 nM and 25.1 nM	4830	41		1370		6350	127 ± 3.2	39.1
O=C(NCCCN1CCN(c2cccc(C3=NCCS3)c2)CC1)C1CC2C=CC1C2 (stereo not drawn) [FG‐17, Endo‐N‐(3‐(4‐(3‐(4,5‐dihydrothiazol‐2‐yl)phenyl)piperazin‐1‐yl)propyl) bicyclo[2.2.1]hept‐5‐ene‐2‐carboxamide]	823 nM	1660	21.1		6060		1250	134 ± 2.5	25
